# Reference: patent US11214565B2, “Compound, compositions, and methods” (Denali Therapeutics Inc., priority 2015, dated 2022)
# Target: LRRK2 G2019S enzyme (Homo sapiens (Human), UniProt Q5S007, G2019S)
# Experiment: LRRK2 G2019S TR-FRET biochemical kinase assay (LRRKtide substrate)
# Details: Table A-2; 5 nM LRRK2, 134 μM ATP, 60 minute reaction, 23° C.
# Experimental: LRRK2 G2019S enzyme, Substrate (LRRKtide), ATP, TR-FRET dilution buffer, pLRRKtide antibody, 384-well assay plate, and DMSO.
# 50 mM Tris pH 7.5, 10 mM MgCl2, 1 mM EGTA, 0.01% Brij-35, 2 mM DTT, 5 nM LRRK2, 134 μM ATP, 60 minute reaction time, 23° C. reaction temperature, and 10 μL total reaction volume.
# 1×TR-FRET dilution buffer, 10 mM EDTA, 2 nM antibody, 23° C. reaction temperature, and 10 μL total reaction volume.
# Compound solutions were prepared by initially diluting to 1 mM with DMSO. 35 μL of reference compound solution, 35 μL of test compound solution, and 35 μL HPE were successively added to the source plate (384-well assay plate, Labcyte). The plates were centrifuged at 2500 rpm for 1 minute and sealed in foil. POD was used to perform a 3.162 fold serial dilution and 100 nL of reference compound solution, test compound solution, HPE and ZPE were transferred to assay plates. The assay plate was centrifuged at 2500 rpm for 1 minute, and sealed with foil.
# To perform the enzyme reaction, 5 μL of LRRKtide substrate and kinase mixture in assay buffer was added to all wells of the assay plate. The plate was centrifuged to concentrate the mixture at the bottom of the wells. The assay plate was incubated at 23° C. for 20 minutes. Following incubation, 5 μL of 2×ATP in assay buffer was added to each well, and plates were centrifuged to concentrate the mixture at the bottom of the wells. The plate was incubated at 23° C. for 60 minutes.
# To perform the detection of the reaction, EDTA completely mixed in TR-FRET dilution buffer was added to antibody reagent. 10 μL of detection reagent was added to all wells of each well of the assay-plate and the plate was centrifuged to concentrate the mixture at the bottom of the wells. The plate was then incubated at 23° C. for 60 minutes. Plates were read on Perkin Elmer Envision 2104 instrument in TR-FRET mode using a 340 nm excitation filter, 520 nm fluorescence emission filter, and 490 or 495 nm terbium emission filter.
# B-2, C2, and D-4 respectively.
# LRRK2 G2019S enzyme, sequence (Q5S007 whole entry G2019S): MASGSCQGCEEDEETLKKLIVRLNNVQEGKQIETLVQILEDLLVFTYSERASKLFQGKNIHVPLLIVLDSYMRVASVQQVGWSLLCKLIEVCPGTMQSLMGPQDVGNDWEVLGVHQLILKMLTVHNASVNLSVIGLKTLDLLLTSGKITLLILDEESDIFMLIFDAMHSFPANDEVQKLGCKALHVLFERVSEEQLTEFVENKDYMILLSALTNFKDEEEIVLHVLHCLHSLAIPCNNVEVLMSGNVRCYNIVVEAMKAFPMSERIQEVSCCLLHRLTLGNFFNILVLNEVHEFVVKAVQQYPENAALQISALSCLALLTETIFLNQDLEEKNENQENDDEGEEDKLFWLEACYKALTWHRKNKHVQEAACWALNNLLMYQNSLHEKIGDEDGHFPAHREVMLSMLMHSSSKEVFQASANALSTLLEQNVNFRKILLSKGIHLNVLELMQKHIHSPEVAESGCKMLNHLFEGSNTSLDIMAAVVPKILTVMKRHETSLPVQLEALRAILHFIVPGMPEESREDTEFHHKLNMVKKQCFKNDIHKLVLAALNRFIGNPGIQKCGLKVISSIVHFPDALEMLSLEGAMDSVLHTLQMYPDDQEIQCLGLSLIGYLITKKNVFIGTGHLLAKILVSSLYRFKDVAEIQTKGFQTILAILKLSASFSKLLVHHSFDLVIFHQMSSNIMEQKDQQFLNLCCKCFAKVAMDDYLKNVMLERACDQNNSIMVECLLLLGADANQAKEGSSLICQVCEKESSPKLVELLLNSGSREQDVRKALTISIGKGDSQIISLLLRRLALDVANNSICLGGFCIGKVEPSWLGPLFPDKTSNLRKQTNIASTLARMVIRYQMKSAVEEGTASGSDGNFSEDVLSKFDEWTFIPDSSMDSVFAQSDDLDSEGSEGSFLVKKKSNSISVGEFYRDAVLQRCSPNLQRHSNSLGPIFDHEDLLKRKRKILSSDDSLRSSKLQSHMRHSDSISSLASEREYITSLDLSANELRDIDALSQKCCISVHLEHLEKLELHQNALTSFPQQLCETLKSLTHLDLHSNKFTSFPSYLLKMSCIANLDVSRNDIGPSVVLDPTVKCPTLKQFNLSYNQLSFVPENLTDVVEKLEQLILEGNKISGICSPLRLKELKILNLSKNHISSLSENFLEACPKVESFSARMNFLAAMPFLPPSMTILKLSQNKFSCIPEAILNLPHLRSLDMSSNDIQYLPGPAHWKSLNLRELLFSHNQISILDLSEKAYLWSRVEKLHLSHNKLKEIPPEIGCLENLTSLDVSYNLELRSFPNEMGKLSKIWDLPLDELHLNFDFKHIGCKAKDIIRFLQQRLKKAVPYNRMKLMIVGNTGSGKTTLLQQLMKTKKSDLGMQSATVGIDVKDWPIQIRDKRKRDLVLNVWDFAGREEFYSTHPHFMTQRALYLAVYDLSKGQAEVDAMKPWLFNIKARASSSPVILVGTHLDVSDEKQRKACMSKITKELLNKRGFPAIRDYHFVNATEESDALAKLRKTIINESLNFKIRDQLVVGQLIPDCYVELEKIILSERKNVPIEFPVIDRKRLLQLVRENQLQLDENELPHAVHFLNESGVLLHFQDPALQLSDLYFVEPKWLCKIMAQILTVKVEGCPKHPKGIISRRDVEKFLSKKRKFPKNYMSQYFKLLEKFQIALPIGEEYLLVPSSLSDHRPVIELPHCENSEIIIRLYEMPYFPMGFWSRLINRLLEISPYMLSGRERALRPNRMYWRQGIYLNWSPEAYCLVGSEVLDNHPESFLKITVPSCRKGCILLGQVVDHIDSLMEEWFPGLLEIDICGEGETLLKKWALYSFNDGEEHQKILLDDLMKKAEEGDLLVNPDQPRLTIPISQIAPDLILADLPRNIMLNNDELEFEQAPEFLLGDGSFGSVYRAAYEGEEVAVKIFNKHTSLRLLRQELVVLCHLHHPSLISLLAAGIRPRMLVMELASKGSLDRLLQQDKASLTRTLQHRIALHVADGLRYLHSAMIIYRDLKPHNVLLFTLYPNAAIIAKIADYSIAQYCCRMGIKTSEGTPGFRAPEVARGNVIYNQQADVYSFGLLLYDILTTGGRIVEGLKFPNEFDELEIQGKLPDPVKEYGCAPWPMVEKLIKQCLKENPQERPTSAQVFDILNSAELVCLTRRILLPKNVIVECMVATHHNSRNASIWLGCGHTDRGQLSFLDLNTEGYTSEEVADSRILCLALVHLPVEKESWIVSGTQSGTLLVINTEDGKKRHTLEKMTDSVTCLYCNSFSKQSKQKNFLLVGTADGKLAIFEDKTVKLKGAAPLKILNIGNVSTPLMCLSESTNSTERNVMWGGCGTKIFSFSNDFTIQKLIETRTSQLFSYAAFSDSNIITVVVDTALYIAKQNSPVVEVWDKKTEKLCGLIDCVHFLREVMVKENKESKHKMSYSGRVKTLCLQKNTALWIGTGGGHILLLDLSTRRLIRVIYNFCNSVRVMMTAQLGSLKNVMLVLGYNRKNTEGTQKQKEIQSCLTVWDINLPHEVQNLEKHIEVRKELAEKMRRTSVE
row,SMILES,IC50
1,"Cc1nn(C(C)(C)C#N)cc1Nc1ncc(C(F)(F)F)c([C@@H]2C[C@H]2F)n1 (single isomer, unassigned) [Compound A-12, 2-(4-((4-(2-fluorocyclopropyl)-5-(trifluoromethyl)pyrimidin-2-yl)amino)-3-methyl-1H-pyrazol-1-yl)-2-methylpropanenitrile]",> 60 nM
2,"Cc1nn(C(C)(C)C#N)cc1Nc1ncc(C(F)(F)F)c([C@H]2C[C@@H]2F)n1 (single isomer, unassigned) [Compound A-13, 2-(4-((4-(2-fluorocyclopropyl)-5-(trifluoromethyl)pyrimidin-2-yl)amino)-3-methyl-1H-pyrazol-1-yl)-2-methylpropanenitrile]",> 60 nM
3,"CC1(O)CCCC1n1ncc(Nc2ncc(C(F)(F)F)c(C3CC3)n2)c1Cl (single isomer, unassigned) [Compound A-49, 2-(5-chloro-4-((4-cyclopropyl-5-(trifluoromethyl)pyrimidin-2-yl)amino)-1H-pyrazol-1-yl)-1-methylcyclopentanol]",> 60 nM
4,"CC1(O)CCCC1n1ncc(Nc2ncc(C(F)(F)F)c(C3CC3)n2)c1Cl (single isomer, unassigned) [Compound A-50, 2-(5-chloro-4-((4-cyclopropyl-5-(trifluoromethyl)pyrimidin-2-yl)amino)-1H-pyrazol-1-yl)-1-methylcyclopentanol]",< 30 nM
5,"CCN1CC(n2ncc(Nc3ncc(C(F)(F)F)c(C4CC4)n3)c2C)CCC1=O (single isomer, unassigned) [Compound A-59]",< 30 nM
6,"CCN1CC(n2ncc(Nc3ncc(C(F)(F)F)c(C4CC4)n3)c2C)CCC1=O (single isomer, unassigned) [Compound A-60]",< 30 nM
7,"CCN1CC(n2cc(Nc3ncc(C(F)(F)F)c(C4CC4)n3)c(C)n2)CCC1=O (single isomer, unassigned) [Compound A-61]",30 to 60 nM
8,"CCN1CC(n2cc(Nc3ncc(C(F)(F)F)c(C4CC4)n3)c(C)n2)CCC1=O (single isomer, unassigned) [Compound A-62]",> 60 nM
9,"FC(F)(F)c1cnc(Nc2cnn([C@H]3CN(C4COC4)CCC3(F)F)c2Cl)nc1C1CC1 (single isomer, unassigned) [Compound A-64, N-(5-chloro-1-(4,4-difluoro-1-(oxetan-3-yl)piperidin-3-yl)-1H-pyrazol-4-yl)-4-cyclopropyl-5-(trifluoromethyl)pyrimidin-2-amine]",30 to 60 nM
10,"FC(F)(F)c1cnc(Nc2cnn([C@@H]3CN(C4COC4)CCC3(F)F)c2Cl)nc1C1CC1 (single isomer, unassigned) [Compound A-65, N-(5-chloro-1-(4,4-difluoro-1-(oxetan-3-yl)piperidin-3-yl)-1H-pyrazol-4-yl)-4-cyclopropyl-5-(trifluoromethyl)pyrimidin-2-amine]",< 30 nM
11,"Cc1nn([C@@H]2CCn3ccnc32)cc1Nc1ncc(C(F)(F)F)c(C2CC2)n1 (single isomer, unassigned) [Compound A-78]",> 60 nM
12,"Cc1nn([C@H]2CCn3ccnc32)cc1Nc1ncc(C(F)(F)F)c(C2CC2)n1 (single isomer, unassigned) [Compound A-79]",< 30 nM
13,"Cc1nn([C@@H]2CCn3cnnc32)cc1Nc1ncc(C(F)(F)F)c(C2CC2)n1 (single isomer, unassigned) [Compound A-82]",< 30 nM
14,"Cc1nn([C@H]2CCn3cnnc32)cc1Nc1ncc(C(F)(F)F)c(C2CC2)n1 (single isomer, unassigned) [Compound A-83]",< 30 nM

# Same assay, conditions: Table D-4; 5 nM LRRK2, 134 μM ATP, 60 minute reaction, 23° C.
row,SMILES,IC50
1,"CCNc1nc(Nc2cnn(C3CCn4ccnc43)c2C)ncc1C(F)(F)F (racemic) [Compound D-22, N2-(1-(6,7-dihydro-5H-pyrrolo[1,2-a]imidazol-7-yl)-5-methyl-1H-pyrazol-4-yl)-N4-ethyl-5-(trifluoromethyl)pyrimidine-2,4-diamine]",< 30 nM
